{"source": "patent US20220031800A1", "about": "“PEPTIDES FOR TREATING NON-EXUDATIVE MACULAR DEGENERATION AND OTHER DISORDERS OF THE EYE” (Allegro Pharmaceuticals, LLC, priority 2019, published 2022)", "key": {"primary human RPE cells": {"system": "primary human RPE cells", "experiment": "Mitochondrial membrane potential (JC-1) in primary human RPE cells exposed to hydroquinone", "type": "cell-based", "conditions": "0.4 mM risuteganib co-treatment with HQ 125-180 uM", "description": "Purpose: To determine if risuteganib protects against hydroquinone (HQ)-mediated cell injury, elevated ROS level and reduced mitochondrial membrane potential (Δψm) in cultured human RPE cells. Elevated ROS levels increase oxidative stress in the cells, leading to reduced cell health and cell death. Loss of ΔΨm is a marker for early cell death. Methods: Primary human RPE cells were seeded on collagen-coated 96-well plates in triplicates at 8K, 10K and […] cells/well, respectively. Cells reached 80% to 100% confluence 24 hours after plating, and confluent cells were then grown for an additional 4 or 5 days until growth was density arrested. On day 6 after plating, cells in the plate upper half were loaded with 20 μM CM-H2DCFDA (measures ROS level) and in the plate lower half with 10 μM JC-1 (measures Δψm) for 30 minutes at 37° C. […] For the ROS and Δψm assays, a fluorescence plate reader was used to quantify ROS production (490-nm excitation, 522-nm emission), and green monomer of JC-1 (490-nm excitation, 522-nm emission) and red JC-1 aggregate (535-nm excitation, 590-nm emission), respectively. […] The WST reagent was quantified with a plate reader at 440 nm and a reference wavelength at 690 nm. Data were normalized to untreated control as 100% and were expressed as the mean±SD."}, "[1]": {"system": "study eye of subjects with intermediate non-exudative AMD", "experiment": "Best corrected visual acuity (BCVA, letters read) in Dry AMD study", "type": "in vivo, human", "conditions": "for Proportion of subjects with gain of at least 8 BCVA letters read: post hoc", "description": "The subjects in Groups 1 and 2 received the following treatments: Thus, subjects in Group 1 received an initial sham injection in the study eye followed by a single 1 mg dose of risuteganib in the study eye. The subjects in Group 2 received a total of two (2) doses of risuteganib (1 mg per dose) in the study eye. Numerous study assessments were conducted at various time points throughout the study. Included among these study assessments were; refractive eye examinations, determinations of BCVA AND low-luminance BCVA, Lanthony D-15 color vision test, measurement of intraocular pressure (IOP), Indirect ophthalmoscopy/dilated fundus examinations and spectral-domain optical coherence tomography (SD-OCT). Also, blood and saliva samples were obtained from each subject for genetic analysis. The above-listed study assessments were performed at the time points indicated in Table 1, below: For this study, a primary efficacy endpoint was deemed to be the percentage of population with an improvement in BCVA of at least 8 letters (1.5 lines) BCVA."}, "[2]": {"conditions": "Week 4, Group 2 (1 mg IVT day 1 + wk 16), subset gain ≥8 letters at any week, n = 14"}, "[3]": {"conditions": "Week 4, Group 2 (1 mg IVT day 1 + wk 16), subset gain ≥8 letters at primary endpoint week, n = 12"}, "[4]": {"conditions": "Week 8, Group 2 (1 mg IVT day 1 + wk 16), subset gain ≥8 letters at any week, n = 14"}, "[5]": {"conditions": "Week 8, Group 2 (1 mg IVT day 1 + wk 16), subset gain ≥8 letters at primary endpoint week, n = 12"}, "[6]": {"conditions": "Week 12, Group 2 (1 mg IVT day 1 + wk 16), subset gain ≥8 letters at any week, n = 14"}, "[7]": {"conditions": "Week 12, Group 2 (1 mg IVT day 1 + wk 16), subset gain ≥8 letters at primary endpoint week, n = 12"}, "[8]": {"conditions": "Week 16, Group 2 (1 mg IVT day 1 + wk 16), subset gain ≥8 letters at any week, n = 14"}, "[9]": {"conditions": "Week 16, Group 2 (1 mg IVT day 1 + wk 16), subset gain ≥8 letters at primary endpoint week, n = 12"}, "[10]": {"conditions": "Week 20, Group 1 crossover (sham day 1, 1 mg IVT wk 16), subset gain ≥8 letters at any week, n = 3"}, "[11]": {"conditions": "Week 20, Group 1 crossover (sham day 1, 1 mg IVT wk 16), subset gain ≥8 letters at primary endpoint week, n = 2"}, "[12]": {"conditions": "Week 20, Group 2 (1 mg IVT day 1 + wk 16), subset gain ≥8 letters at any week, n = 14"}, "[13]": {"conditions": "Week 20, Group 2 (1 mg IVT day 1 + wk 16), subset gain ≥8 letters at primary endpoint week, n = 12"}, "[14]": {"conditions": "Week 24, Group 1 crossover (sham day 1, 1 mg IVT wk 16), subset gain ≥8 letters at any week, n = 3"}}, "note": "Square brackets hold non-standard residues; d marks the D form. Peptide text beside a SMILES is read from it. Cya = N[C@@H](CS(=O)(=O)O)C(=O)O"}
{"molecule": "C[C@@H](O)[C@H](NC(=O)[C@H](CS(=O)(=O)O)NC(=O)CNC(=O)[C@H](CCCNC(=N)N)NC(=O)CN)C(=O)N1CCC[C@H]1C(=O)O", "note": "[risuteganib, Glycyl-L-arginylglycyl-3-sulfo-L-alanyl-L-threonyl-L-proline] (H-GRG[Cya]TP-OH)", "values": [{"measurement": "Improvement of HQ-reduced Δψm", "setting": "primary human RPE cells", "value": 16, "unit": "%"}, {"measurement": "Time of peak effect after treatment", "setting": "[1]; BCVA, after each 1 mg intravitreal dose", "value": 12, "unit": "weeks"}, {"measurement": "Proportion of subjects with gain of at least 8 BCVA letters read", "setting": "[1]; Group 2, GA Subgroup (GA in central 6-mm subfield)", "value": 40, "unit": "%"}, {"measurement": "Proportion of subjects with gain of at least 8 BCVA letters read", "setting": "[1]; Group 2, No GA Subgroup (no GA in central 6-mm subfield)", "value": 80, "unit": "%"}, {"measurement": "BCVA change in letters read, mean", "setting": "[1]; [2]", "value": 4.0, "unit": "letters read"}, {"measurement": "BCVA change in letters read, median", "setting": "[1]; [2]", "value": 3.0, "unit": "letters read"}, {"measurement": "BCVA letters read, mean", "setting": "[1]; [2]", "value": 66.5, "unit": "letters read"}, {"measurement": "BCVA letters read, median", "setting": "[1]; [2]", "value": 67.0, "unit": "letters read"}, {"measurement": "BCVA change in letters read, mean", "setting": "[1]; [3]", "value": 4.1, "unit": "letters read"}, {"measurement": "BCVA change in letters read, median", "setting": "[1]; [3]", "value": 3.0, "unit": "letters read"}, {"measurement": "BCVA letters read, mean", "setting": "[1]; [3]", "value": 67.0, "unit": "letters read"}, {"measurement": "BCVA letters read, median", "setting": "[1]; [3]", "value": 68.5, "unit": "letters read"}, {"measurement": "BCVA change in letters read, mean", "setting": "[1]; [4]", "value": 5.8, "unit": "letters read"}, {"measurement": "BCVA change in letters read, median", "setting": "[1]; [4]", "value": 5.5, "unit": "letters read"}, {"measurement": "BCVA letters read, mean", "setting": "[1]; [4]", "value": 68.3, "unit": "letters read"}, {"measurement": "BCVA letters read, median", "setting": "[1]; [4]", "value": 71.0, "unit": "letters read"}, {"measurement": "BCVA change in letters read, mean", "setting": "[1]; [5]", "value": 5.6, "unit": "letters read"}, {"measurement": "BCVA change in letters read, median", "setting": "[1]; [5]", "value": 5.5, "unit": "letters read"}, {"measurement": "BCVA letters read, mean", "setting": "[1]; [5]", "value": 68.5, "unit": "letters read"}, {"measurement": "BCVA letters read, median", "setting": "[1]; [5]", "value": 72.0, "unit": "letters read"}, {"measurement": "BCVA change in letters read, mean", "setting": "[1]; [6]", "value": 7.1, "unit": "letters read"}, {"measurement": "BCVA change in letters read, median", "setting": "[1]; [6]", "value": 5.5, "unit": "letters read"}, {"measurement": "BCVA letters read, mean", "setting": "[1]; [6]", "value": 69.6, "unit": "letters read"}, {"measurement": "BCVA letters read, median", "setting": "[1]; [6]", "value": 69.5, "unit": "letters read"}, {"measurement": "BCVA change in letters read, mean", "setting": "[1]; [7]", "value": 7.7, "unit": "letters read"}, {"measurement": "BCVA change in letters read, median", "setting": "[1]; [7]", "value": 5.5, "unit": "letters read"}, {"measurement": "BCVA letters read, mean", "setting": "[1]; [7]", "value": 70.6, "unit": "letters read"}, {"measurement": "BCVA letters read, median", "setting": "[1]; [7]", "value": 72.0, "unit": "letters read"}, {"measurement": "BCVA change in letters read, mean", "setting": "[1]; [8]", "value": 6.4, "unit": "letters read"}, {"measurement": "BCVA change in letters read, median", "setting": "[1]; [8]", "value": 8.0, "unit": "letters read"}, {"measurement": "BCVA letters read, mean", "setting": "[1]; [8]", "value": 68.9, "unit": "letters read"}, {"measurement": "BCVA letters read, median", "setting": "[1]; [8]", "value": 69.5, "unit": "letters read"}, {"measurement": "BCVA change in letters read, mean", "setting": "[1]; [9]", "value": 6.3, "unit": "letters read"}, {"measurement": "BCVA change in letters read, median", "setting": "[1]; [9]", "value": 8.0, "unit": "letters read"}, {"measurement": "BCVA letters read, mean", "setting": "[1]; [9]", "value": 69.2, "unit": "letters read"}, {"measurement": "BCVA letters read, median", "setting": "[1]; [9]", "value": 70.5, "unit": "letters read"}, {"measurement": "BCVA change in letters read, mean", "setting": "[1]; [10]", "value": 2.0, "unit": "letters read"}, {"measurement": "BCVA change in letters read, median", "setting": "[1]; [10]", "value": 0.0, "unit": "letters read"}, {"measurement": "BCVA letters read, mean", "setting": "[1]; [10]", "value": 71.7, "unit": "letters read"}, {"measurement": "BCVA letters read, median", "setting": "[1]; [10]", "value": 75.0, "unit": "letters read"}, {"measurement": "BCVA change in letters read, mean", "setting": "[1]; [11]", "value": 0.0, "unit": "letters read"}, {"measurement": "BCVA change in letters read, median", "setting": "[1]; [11]", "value": 0.0, "unit": "letters read"}, {"measurement": "BCVA letters read, mean", "setting": "[1]; [11]", "value": 70.0, "unit": "letters read"}, {"measurement": "BCVA letters read, median", "setting": "[1]; [11]", "value": 70.0, "unit": "letters read"}, {"measurement": "BCVA change in letters read, mean", "setting": "[1]; [12]", "value": 9.8, "unit": "letters read"}, {"measurement": "BCVA change in letters read, median", "setting": "[1]; [12]", "value": 10.0, "unit": "letters read"}, {"measurement": "BCVA letters read, mean", "setting": "[1]; [12]", "value": 72.3, "unit": "letters read"}, {"measurement": "BCVA letters read, median", "setting": "[1]; [12]", "value": 74.5, "unit": "letters read"}, {"measurement": "BCVA change in letters read, mean", "setting": "[1]; [13]", "value": 11.3, "unit": "letters read"}, {"measurement": "BCVA change in letters read, median", "setting": "[1]; [13]", "value": 10.0, "unit": "letters read"}, {"measurement": "BCVA letters read, mean", "setting": "[1]; [13]", "value": 74.2, "unit": "letters read"}, {"measurement": "BCVA letters read, median", "setting": "[1]; [13]", "value": 75.0, "unit": "letters read"}, {"measurement": "BCVA change in letters read, mean", "setting": "[1]; [14]", "value": 8.7, "unit": "letters read"}, {"measurement": "BCVA change in letters read, median", "setting": "[1]; [14]", "value": 10.0, "unit": "letters read"}]}
